According to publication PMC13155482 (Science Advances, 2025):
Residue numbers refer to the chain shown, from its start. Like-named read-outs stand apart in the source and are kept apart here. Values belong to the molecule of their own block, whether it stands above or below them.

Tests used:
[1] = target: T1, 5-HT1A (Homo sapiens, UniProt P08908); test: 5-HT1A-mediated cAMP inhibition; format: cell-based
T1 sequence (P08908 1-422): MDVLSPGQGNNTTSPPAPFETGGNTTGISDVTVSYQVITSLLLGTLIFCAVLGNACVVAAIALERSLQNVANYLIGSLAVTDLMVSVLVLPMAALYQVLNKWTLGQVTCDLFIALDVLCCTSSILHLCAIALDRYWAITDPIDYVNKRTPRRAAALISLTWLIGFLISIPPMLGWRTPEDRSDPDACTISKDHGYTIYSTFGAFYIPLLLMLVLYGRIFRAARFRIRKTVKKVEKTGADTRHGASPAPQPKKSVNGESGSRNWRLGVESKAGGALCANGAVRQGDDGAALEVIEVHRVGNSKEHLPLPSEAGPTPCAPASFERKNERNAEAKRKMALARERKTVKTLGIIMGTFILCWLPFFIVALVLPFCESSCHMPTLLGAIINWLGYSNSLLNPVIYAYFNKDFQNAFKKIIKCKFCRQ

[2] = target: T2, 5-HT1A F112A (Homo sapiens, UniProt P08908, F112A); conditions: Gi1, 5-HT1A F112A
T2 sequence (P08908 1-422 F112A): T1 sequence (P08908 1-422) with F112A

[3] = target: T2, 5-HT1A F112A; conditions: Goa
[4] = target: T2, 5-HT1A F112A; conditions: Gz
[5] = target: T3, 5-HT1A I189A (Homo sapiens, UniProt P08908, I189A); conditions: 5-HT1A I189 mutant
T3 sequence (P08908 1-422 I189A): T1 sequence (P08908 1-422) with I189A

[6] = target: T4, 5-HT1A S199A (Homo sapiens, UniProt P08908, S199A); conditions: Gi1, 5-HT1A S199A
T4 sequence (P08908 1-422 S199A): T1 sequence (P08908 1-422) with S199A

[7] = target: T4, 5-HT1A S199A; conditions: Gz
[8] = target: T5, 5-HT1A A222V (Homo sapiens, UniProt P08908, A222V); conditions: Goa
T5 sequence (P08908 1-422 A222V): T1 sequence (P08908 1-422) with A222V

[9] = target: T6, 5-HT1A, Gi1 D315P (Homo sapiens, UniProt P08908); conditions: activity comparable to vehicle
T6 sequence (P08908 1-422): T1 sequence (P08908 1-422)

[10] = target: T4, 5-HT1A S199A; test: cell-based; conditions: EC50, Goa
[11] = target: T1, 5-HT1A; test: BRET Gi1 activation at WT 5-HT1A; conditions: Gi1, WT 5-HT1A, compared to antagonist methiothepin
[12] = target: T1, 5-HT1A; test: BRET Goa activation at WT 5-HT1A

- agonist character in cAMP inhibition ([1]; HEK293T, compared to 5-HT): partial agonists
SMILES: O=C1CC2(CCCC2)CC(=O)N1CCCCN1CCN(c2nsc3ccccc23)CC1 [Tiospirone]

- agonist character in cAMP inhibition ([1]; HEK293T, compared to 5-HT): nearly a full agonist
SMILES: CN1CCN2c3ccccc3Cc3ccccc3C2C1 (stereo not drawn) [mianserin]

- effect of F112A mutation on efficacy [2]: seemingly ablates efficacy
- effect of F112A mutation on efficacy [3]: seemingly ablates efficacy
- effect of F112A mutation on efficacy [4]: seemingly ablates efficacy
SMILES: O=C1CC2(CCCC2)CC(=O)N1CCCCN1CCN(c2ncccn2)CC1 [Buspirone]

- agonist character in cAMP inhibition [1]: partial agonists
- effect of F112A mutation on efficacy [3]: seemingly ablates
- effect of I189 mutation on activity [5]: ablates asenapine activity
- activation [6]: no significant activity
- activation [7]: no significant activity
- Emax (%WT 5-HT) [8]: 64.7 %WT 5-HT
- EC50 [10]: 6.84 nM
- Gi1 activation [11]: no significant activity
- EC50 [12]: 9.12 nM
SMILES: CN1CC2c3ccccc3Oc3ccc(Cl)cc3C2C1 (stereo not drawn) [Asenapine]
- signaling through Gi1 D315P [9]: loss of concentration-dependent agonist signaling
